ChEMBL document CHEMBL1201862, “PubChem BioAssay data set” (2004)
“And” between values parts separate entries of the source, which are not always exact repeats. Identical values can stand only once. The source made the active and inactive calls.

Assays:
[1] = target: Voltage-gated inwardly rectifying potassium channel KCNH2 (Homo sapiens, UniProt Q12809); conditions: Potency;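 further: confirmatory quantitative high-throughput screen measuring inhibition of hERG channel activity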
Cytochrome P450 1A2 = target: T1, Cytochrome P450 1A2 (Homo sapiens, UniProt P05177);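 further: PubChem cytochrome P450 panel assay, CYP1A2 panel member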
T1 sequence (P05177 whole entry): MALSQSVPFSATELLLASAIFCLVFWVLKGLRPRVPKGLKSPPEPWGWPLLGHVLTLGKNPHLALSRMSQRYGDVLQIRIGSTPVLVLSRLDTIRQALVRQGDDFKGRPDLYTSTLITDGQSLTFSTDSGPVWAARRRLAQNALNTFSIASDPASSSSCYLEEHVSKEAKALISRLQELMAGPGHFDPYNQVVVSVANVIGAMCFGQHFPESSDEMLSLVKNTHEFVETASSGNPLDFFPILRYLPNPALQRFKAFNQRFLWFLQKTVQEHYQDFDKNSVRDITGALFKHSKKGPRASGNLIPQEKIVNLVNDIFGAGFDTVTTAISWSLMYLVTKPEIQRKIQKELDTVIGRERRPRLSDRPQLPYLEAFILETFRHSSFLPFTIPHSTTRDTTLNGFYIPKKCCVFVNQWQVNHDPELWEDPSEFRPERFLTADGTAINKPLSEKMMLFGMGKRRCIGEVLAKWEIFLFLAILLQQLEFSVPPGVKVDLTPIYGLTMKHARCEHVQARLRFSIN

CAAX prenyl protease 2 [2] = target: T2, CAAX prenyl protease 2 (Homo sapiens, UniProt Q9Y256); test: human Rce1 protease inhibitors, dose response, biochemical, yeast membranes, quenched-peptide fluorescence, cherry-pick (AID 588849)
T2 sequence (Q9Y256 whole entry): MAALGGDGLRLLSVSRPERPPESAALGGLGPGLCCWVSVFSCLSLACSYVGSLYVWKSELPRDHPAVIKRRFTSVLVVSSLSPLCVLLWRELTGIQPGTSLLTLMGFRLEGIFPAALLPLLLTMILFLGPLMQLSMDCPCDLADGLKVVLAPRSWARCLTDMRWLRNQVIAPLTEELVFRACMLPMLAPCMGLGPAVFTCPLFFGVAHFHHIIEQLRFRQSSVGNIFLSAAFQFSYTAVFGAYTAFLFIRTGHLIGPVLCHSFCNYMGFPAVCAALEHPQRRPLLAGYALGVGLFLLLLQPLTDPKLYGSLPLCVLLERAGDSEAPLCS

Trypsin = Trypsin (Sus scrofa, UniProt P00761); test: porcine trypsin inhibitors, dose response, selectivity assay for Rce1 protease inhibitor project, biochemical, quenched peptide fluorescence, cherry-pick (AID 488789)
Sequence of Trypsin (P00761 whole entry): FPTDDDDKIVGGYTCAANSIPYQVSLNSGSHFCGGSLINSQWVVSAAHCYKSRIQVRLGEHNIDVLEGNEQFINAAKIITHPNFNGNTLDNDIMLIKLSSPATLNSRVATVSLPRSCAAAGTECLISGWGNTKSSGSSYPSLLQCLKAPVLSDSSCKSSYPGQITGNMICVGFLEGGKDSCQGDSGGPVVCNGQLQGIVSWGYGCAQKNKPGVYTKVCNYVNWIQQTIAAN

CAAX prenyl protease 2 [3] = target: T3, CAAX prenyl protease 2 (Saccharomyces cerevisiae S288c, UniProt Q03530); format: biochemical
T3 sequence (Q03530 whole entry): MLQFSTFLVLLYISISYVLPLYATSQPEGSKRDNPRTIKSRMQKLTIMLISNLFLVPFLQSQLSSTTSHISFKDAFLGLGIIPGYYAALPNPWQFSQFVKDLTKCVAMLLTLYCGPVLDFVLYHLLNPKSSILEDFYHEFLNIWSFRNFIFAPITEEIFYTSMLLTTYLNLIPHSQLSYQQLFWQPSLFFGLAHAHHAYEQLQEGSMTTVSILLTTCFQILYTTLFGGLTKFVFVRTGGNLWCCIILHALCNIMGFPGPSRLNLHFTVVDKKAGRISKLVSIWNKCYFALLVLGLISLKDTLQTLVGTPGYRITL

Mu-type opioid receptor = Mu-type opioid receptor (Homo sapiens, UniProt P35372); format: functional, cell-based;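 further: U2OS cells with beta-arrestin recruitment to OPRM1 by beta-gal complementation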
Sequence of Mu-type opioid receptor (P35372 whole entry): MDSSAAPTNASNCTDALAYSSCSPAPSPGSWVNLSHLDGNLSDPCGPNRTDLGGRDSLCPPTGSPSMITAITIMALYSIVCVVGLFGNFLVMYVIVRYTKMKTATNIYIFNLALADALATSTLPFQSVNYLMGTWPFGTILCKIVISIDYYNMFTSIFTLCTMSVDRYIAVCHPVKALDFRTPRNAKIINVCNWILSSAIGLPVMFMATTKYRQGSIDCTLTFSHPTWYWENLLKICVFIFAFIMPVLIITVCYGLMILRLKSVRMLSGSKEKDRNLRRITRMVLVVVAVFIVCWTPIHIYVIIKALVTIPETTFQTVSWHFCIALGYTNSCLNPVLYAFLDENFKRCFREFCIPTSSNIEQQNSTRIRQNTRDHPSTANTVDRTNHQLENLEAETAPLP

[4] = target: 5-hydroxytryptamine receptor 2A (Mus musculus, UniProt P35363); format: functional, cell-based;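 further: CHO-K1 cells with tagged receptor and beta-arrestin; agonist potency measured as compound-induced activation of the receptor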
Sequence of 5-hydroxytryptamine receptor 2A (P35363 whole entry): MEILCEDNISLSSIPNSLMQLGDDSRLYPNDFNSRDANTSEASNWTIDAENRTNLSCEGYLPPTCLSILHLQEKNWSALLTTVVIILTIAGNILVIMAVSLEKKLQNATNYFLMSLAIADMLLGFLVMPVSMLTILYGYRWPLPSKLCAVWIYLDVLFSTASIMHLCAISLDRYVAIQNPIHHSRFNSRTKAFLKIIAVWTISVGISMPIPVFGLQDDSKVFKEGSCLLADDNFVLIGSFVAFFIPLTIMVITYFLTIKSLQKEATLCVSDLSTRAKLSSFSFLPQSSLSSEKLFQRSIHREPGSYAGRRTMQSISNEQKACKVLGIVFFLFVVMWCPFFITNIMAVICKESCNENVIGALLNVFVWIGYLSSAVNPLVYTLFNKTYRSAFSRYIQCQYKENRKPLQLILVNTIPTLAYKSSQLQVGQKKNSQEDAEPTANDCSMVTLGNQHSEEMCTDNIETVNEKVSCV

HEK293 = test: cells; format: functional, cell-based; conditions: Homo sapiens
[5] = target: T4, Nuclear receptor subfamily 0 group B member 1 (Homo sapiens, UniProt P51843); test: Luminescence-based cell-based high throughput dose response assay for inhibitors of the orphan nuclear receptor subfamily 0, group B, member 1 (DAX1; NR0B1). [Related pubchem assays (depositor defined):AID504766, AID504790]; format: functional
T4 sequence (P51843 whole entry): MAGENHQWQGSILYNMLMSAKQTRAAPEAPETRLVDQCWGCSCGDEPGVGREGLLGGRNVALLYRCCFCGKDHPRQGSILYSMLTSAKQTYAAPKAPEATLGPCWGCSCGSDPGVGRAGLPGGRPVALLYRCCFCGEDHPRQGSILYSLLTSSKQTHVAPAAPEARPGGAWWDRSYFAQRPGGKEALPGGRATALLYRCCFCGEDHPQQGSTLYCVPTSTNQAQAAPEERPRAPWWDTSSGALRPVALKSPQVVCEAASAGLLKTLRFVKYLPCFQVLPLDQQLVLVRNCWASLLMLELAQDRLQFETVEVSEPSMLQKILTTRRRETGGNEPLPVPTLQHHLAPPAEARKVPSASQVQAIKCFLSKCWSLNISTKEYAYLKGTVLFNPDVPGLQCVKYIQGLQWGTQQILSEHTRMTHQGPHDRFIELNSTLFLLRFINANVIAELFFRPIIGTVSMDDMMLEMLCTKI

[6] = target: T5, Sentrin-specific protease 8 (Homo sapiens, UniProt Q96LD8); format: functional;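 further: luminescence read-out of SENP8 inhibition, dose-response confirmation following an ultra-high-throughput screen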
T5 sequence (Q96LD8 whole entry): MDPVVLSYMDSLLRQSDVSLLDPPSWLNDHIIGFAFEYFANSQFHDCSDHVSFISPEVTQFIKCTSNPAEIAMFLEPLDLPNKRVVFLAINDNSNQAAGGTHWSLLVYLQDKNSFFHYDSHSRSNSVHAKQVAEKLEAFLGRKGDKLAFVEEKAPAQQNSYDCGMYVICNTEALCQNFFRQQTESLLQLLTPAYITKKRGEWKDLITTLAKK

[7] = target: T6, Sentrin-specific protease 7 (Homo sapiens, UniProt Q9BQF6); format: functional;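 further: Luminescence-based dose-response confirmation of ultra-high-throughput screening hits, measuring inhibition of SENP7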
T6 sequence (Q9BQF6 whole entry): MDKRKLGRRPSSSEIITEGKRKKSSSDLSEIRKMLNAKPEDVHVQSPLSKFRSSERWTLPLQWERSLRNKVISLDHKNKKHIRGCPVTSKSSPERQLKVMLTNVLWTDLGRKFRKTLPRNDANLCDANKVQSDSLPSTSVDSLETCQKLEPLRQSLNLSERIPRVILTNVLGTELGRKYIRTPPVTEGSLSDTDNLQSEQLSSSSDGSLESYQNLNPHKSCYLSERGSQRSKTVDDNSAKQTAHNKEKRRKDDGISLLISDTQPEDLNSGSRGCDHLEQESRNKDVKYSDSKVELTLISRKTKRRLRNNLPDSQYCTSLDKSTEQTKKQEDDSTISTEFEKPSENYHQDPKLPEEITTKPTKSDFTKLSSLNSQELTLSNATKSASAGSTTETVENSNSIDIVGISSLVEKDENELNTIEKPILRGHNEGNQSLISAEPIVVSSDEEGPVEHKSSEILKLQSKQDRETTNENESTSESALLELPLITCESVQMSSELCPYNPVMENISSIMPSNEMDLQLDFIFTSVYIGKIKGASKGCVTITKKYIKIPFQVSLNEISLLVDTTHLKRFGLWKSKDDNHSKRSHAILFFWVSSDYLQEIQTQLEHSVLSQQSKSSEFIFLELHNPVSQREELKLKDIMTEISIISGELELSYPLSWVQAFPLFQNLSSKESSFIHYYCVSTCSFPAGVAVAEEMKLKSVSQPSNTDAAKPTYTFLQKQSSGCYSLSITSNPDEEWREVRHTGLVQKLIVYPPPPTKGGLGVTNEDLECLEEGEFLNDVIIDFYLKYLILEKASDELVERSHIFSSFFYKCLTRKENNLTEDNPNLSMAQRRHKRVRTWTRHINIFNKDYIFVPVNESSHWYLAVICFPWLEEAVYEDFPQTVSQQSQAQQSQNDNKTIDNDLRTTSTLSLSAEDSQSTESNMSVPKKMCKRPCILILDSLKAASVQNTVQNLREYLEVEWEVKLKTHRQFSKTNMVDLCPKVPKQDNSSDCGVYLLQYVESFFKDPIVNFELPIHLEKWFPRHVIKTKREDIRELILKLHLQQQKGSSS

Caspase-3 = target: T7, Caspase-3 (Homo sapiens, UniProt P42574); format: functional;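 further: Dose-response selectivity test against caspase-3 for candidate inhibitors of sentrin-specific proteases (SENPs)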
T7 sequence (P42574 whole entry): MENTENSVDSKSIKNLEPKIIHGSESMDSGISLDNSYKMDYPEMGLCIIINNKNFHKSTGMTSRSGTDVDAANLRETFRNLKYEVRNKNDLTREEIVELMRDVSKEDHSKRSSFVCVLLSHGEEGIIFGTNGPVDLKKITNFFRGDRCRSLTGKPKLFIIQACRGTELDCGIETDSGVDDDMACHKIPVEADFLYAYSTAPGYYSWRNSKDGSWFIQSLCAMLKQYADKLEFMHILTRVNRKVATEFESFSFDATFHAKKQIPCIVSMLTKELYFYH

[8] = target: T8, Sentrin-specific protease 6 (Homo sapiens, UniProt Q9GZR1); format: functional;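 further: Luminescence-based dose-response confirmatory assay of SENP6 inhibition, following up an ultra-high-throughput screen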
T8 sequence (Q9GZR1 whole entry): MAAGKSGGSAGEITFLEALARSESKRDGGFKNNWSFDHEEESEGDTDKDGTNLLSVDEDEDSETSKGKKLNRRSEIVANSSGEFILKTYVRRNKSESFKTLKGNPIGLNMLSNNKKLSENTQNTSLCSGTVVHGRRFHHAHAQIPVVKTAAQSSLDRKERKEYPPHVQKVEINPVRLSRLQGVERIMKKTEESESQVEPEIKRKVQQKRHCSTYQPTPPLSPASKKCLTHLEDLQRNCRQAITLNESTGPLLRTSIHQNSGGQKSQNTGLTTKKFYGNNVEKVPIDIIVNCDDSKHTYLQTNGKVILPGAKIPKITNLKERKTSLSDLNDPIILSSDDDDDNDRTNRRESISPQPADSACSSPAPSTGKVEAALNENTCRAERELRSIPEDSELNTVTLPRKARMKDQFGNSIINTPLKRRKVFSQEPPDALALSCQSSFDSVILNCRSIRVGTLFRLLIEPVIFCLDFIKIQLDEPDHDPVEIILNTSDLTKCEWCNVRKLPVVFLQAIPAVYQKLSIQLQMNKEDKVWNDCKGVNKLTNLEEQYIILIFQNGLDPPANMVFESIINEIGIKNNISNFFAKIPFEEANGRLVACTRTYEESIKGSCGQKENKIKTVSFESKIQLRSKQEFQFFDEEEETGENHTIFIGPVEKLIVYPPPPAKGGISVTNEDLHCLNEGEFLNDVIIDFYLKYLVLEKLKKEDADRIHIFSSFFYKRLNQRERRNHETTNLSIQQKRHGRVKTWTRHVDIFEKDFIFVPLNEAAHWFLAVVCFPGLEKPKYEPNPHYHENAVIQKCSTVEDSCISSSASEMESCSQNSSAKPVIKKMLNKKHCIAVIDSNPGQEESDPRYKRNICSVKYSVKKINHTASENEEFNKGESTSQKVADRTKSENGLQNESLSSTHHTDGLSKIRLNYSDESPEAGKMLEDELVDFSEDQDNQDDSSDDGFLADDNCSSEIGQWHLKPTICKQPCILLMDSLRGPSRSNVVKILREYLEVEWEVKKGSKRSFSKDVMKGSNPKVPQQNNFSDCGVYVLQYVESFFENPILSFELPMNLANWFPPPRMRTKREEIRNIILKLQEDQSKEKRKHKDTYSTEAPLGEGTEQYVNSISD

[9] = target: T9, Endoribonuclease toxin MazF (Escherichia coli K-12, UniProt P0AE70); test: MazF toxin RNase activators, dose response, biochemical, fluorescence, single-stranded RNA substrate, uHTS hits (AID 588481); format: functional
T9 sequence (P0AE70 whole entry): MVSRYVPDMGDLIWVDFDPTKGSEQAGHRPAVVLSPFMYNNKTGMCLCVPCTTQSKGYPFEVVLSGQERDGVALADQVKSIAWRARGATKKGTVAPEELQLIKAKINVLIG

[10] = target: T9, Endoribonuclease toxin MazF; test: fluorescent RNA oligo signal without MazF, dose response, counter-screen for MazEF activator project, biochemical, fluorescence, single-stranded RNase substrate (AID 588502); format: functional
Cytochrome P450 3A4 = Cytochrome P450 3A4 (Homo sapiens, UniProt P08684);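 further: CYP3A4 tested as one member of a cytochrome P450 panel screen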
Sequence of Cytochrome P450 3A4 (P08684 whole entry): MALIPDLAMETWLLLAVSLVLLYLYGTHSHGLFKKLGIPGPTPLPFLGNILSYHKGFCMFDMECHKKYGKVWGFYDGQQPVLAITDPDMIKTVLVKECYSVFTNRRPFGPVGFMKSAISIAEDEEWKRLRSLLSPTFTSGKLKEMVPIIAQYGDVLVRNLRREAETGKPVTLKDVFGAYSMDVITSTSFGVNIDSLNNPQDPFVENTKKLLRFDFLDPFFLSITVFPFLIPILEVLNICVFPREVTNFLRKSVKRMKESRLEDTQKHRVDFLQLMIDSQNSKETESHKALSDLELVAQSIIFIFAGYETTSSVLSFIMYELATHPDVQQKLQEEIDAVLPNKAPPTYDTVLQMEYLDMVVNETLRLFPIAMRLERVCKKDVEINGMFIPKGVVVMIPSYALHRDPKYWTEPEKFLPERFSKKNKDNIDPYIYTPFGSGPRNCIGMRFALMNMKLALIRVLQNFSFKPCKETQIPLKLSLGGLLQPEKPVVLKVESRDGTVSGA

Sequence of Voltage-gated inwardly rectifying potassium channel KCNH2 (Q12809 whole entry): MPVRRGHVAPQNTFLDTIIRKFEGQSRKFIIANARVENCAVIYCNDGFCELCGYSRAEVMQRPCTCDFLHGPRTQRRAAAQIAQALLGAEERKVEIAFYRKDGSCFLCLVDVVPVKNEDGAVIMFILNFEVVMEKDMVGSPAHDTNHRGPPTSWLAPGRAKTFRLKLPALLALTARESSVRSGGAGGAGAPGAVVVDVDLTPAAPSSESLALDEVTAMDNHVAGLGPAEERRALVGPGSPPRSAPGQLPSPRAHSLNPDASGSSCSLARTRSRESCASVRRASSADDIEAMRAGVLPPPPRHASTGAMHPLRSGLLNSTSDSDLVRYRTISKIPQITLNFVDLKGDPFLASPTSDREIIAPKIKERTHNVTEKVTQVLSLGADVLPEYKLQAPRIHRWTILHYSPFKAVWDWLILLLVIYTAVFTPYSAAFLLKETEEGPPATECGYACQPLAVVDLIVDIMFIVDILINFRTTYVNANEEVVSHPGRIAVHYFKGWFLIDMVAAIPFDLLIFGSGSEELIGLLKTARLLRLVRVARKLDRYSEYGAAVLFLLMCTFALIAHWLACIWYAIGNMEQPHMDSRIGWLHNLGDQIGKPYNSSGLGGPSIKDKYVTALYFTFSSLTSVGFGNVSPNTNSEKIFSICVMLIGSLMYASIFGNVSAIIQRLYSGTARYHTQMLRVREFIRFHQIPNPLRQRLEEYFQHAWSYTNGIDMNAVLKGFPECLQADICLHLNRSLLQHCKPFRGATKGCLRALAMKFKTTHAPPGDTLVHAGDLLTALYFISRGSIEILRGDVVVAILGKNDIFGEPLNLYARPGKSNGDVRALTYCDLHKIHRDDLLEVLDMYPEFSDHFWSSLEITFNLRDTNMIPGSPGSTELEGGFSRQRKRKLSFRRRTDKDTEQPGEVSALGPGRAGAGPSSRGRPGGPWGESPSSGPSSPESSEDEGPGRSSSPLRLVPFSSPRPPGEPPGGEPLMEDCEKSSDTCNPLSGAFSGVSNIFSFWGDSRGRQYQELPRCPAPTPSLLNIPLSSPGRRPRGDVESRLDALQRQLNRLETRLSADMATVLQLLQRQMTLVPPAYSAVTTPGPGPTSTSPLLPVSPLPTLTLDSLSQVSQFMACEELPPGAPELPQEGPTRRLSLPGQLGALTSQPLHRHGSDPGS

## O=C(Nc1cc(C(=O)Nc2ccc(S(=O)(=O)O)cc2S(=O)(=O)O)cc(C(=O)Nc2ccc(S(=O)(=O)O)cc2S(=O)(=O)O)c1)Nc1cc(C(=O)Nc2ccc(S(=O)(=O)O)cc2S(=O)(=O)O)cc(C(=O)Nc2ccc(S(=O)(=O)O)cc2S(=O)(=O)O)c1
[1]
  AC50: 35.5 µM (inconclusive)
Cytochrome P450 1A2
  AC50: 31.6 µM (inconclusive) and 39.8 µM (inconclusive)

## CC1(C(=O)N(CC(=O)NC2CCCC2)Cc2ccco2)CC(=O)N=C2C=CC=CN21 (stereo not given)
CAAX prenyl protease 2 [2]
  AC50: 3.19 µM (active)
Trypsin
  AC50: 4.21 µM (active)
CAAX prenyl protease 2 [3]
  AC50: 4.64 µM (active)

## CC1=NN=C(c2ccc(N)cc2)c2cc3c(cc2C1)OCO3
Mu-type opioid receptor
  EC50: 92.5 µM (inactive)
[1]
  AC50: 35.5 µM (inconclusive)
[4]
  EC50: 76.1 µM (inactive)

## CCOC(=O)c1ccc2[nH]c3ccccc3c2c1
HEK293
  IC50: > 67.5 µM (inactive)
[5]
  IC50: > 67.5 µM (inactive)

## Cc1ccc(NC(=O)c2cccc3cccnc23)cc1
[6]
  IC50: 24.3 µM (active)
[7]
  IC50: 8.6 µM (active)
Caspase-3
  IC50: 32.5 µM (active)
[8]
  IC50: 31.3 µM (active)

## Oc1ccccc1-c1nc(NCc2ccco2)c2ccccc2n1
[9]
  EC50: > 99 µM (inactive)
[10]
  EC50: > 99 µM (inactive)

## Cc1nc2cc(NC(=O)c3ccc(Br)s3)ccc2s1
[6]
  IC50: > 100 µM (inactive)
[7]
  IC50: 4.08 µM (active)
Caspase-3
  IC50: 19.7 µM (active)
[8]
  IC50: > 100 µM (inactive)

## C=CCOC(=O)C1=C(C)OC(N)=C(C#N)C1c1ccco1 (stereo not given)
HEK293
  IC50: > 67.5 µM (inactive)
[5]
  IC50: > 67.5 µM (inactive)

## Cc1ccc(/N=C/c2c(O)oc3ccccc3c2=O)c(C)c1
[6]
  IC50: > 100 µM (inactive)
[7]
  IC50: > 100 µM (inactive)
Caspase-3
  IC50: 95 µM (active)
[8]
  IC50: > 100 µM (inactive)

## Nc1ncnc2c1ncn2C1C=C(CO)C(O)C1O (stereo not given)
HEK293
  IC50: > 2.51 µM (active)
[5]
  IC50: > 67.7 µM (inactive)

## C[C@H](O)C(=O)C1=Nc2c(nc(N)[nH]c2=O)NC1 [SEPIAPTERIN]
Cytochrome P450 3A4
  AC50: 0.316 µM (inconclusive)
[1]
  AC50: 28.2 µM (inconclusive)
